One data set deals with C57 BL/6J DIO mice. Kind of data set: In vivo pharmacodynamics in high-fat diet induced obesity (DIO) mice. Also noted: species or system mouse. The conditions noted are these: Mean±SEM; for Weight change: Table 6-1; for LDL-C / TC (total cholesterol) / TG (plasma triglycerides): Table 7-1. The text has this: High-fat diet induced obesity (DIO) mice have characteristics such as obesity, elevated blood sugar, insulin resistance, and lipid abnormalities, all of which are very significant metabolic syndromes similar to a human body. The effects of the compounds of the present application on body weight, food intake, blood sugar, and lipids in C57 BL/6J DIO mice were studied.
Obesity was induced in mice by feeding with a high-fat diet (60 kcal % of calories from fat). […] After grouping, one animal was raised in each cage for one week, during which each of the animals was injected subcutaneously (S.C.) with a solvent (1×PBS, 5 ml/kg) to pre-adapt the experimental operation process.
After the preparation of animals, vehicle control or compounds were administered to groups of animals by subcutaneous injection, in which the compounds were dissolved in 1×PBS, the dosage was 5 ml/kg, and the administration operation was started at 9:00 am and conducted once every three days (Q3D) for 15 days. Throughout the entire experimental study, animal weight and food intake were measured daily before administration, and compared with initial weight and food intake of the same animal before administration to calculate a percentage change in animal weight (%) and cumulative food intake, so as to evaluate the impact of compounds on changes in body weight and food intake.
At the end point of the experiment (Day 15), the body weight of the mice was measured, and then fasting blood glucose was measured by taking blood from the tail tip of broken tail without anesthesia. After the blood collection, the animals were anesthetized with CO2 and euthanized. Then, blood was taken from the heart and plasma was separated by centrifugation. The plasma was used to measure total cholesterol (TC), low-density lipoprotein cholesterol (LDL-C), triglycerides (TG), and blood insulin content. The liver was separated for homogenization, and then centrifuged to obtain the supernatant for determining triglyceride content in the liver.
All results were expressed in Mean±SEM, and the results were analyzed by one-way ANOVA using GraphPad Prism 5 software, followed by Dunnett's post hoc test compared to the Vehicle control group. The difference at the p<0.05 level was considered statistically significant.

The conditions of data set [1]: Phase II clinical study, cited from earlier work.
In another data set the test system is 3T3-L1 adipocytes. A digest of the protocol: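 Compound-induced cAMP was measured in mature 3T3-L1 adipocytes after 60 min room-temperature exposure to a 10-concentration, 3-fold dilution series, followed by 60 min with kit detection reagent and curve fitting. Differentiation used IBMX/dexamethasone/insulin (5 days), insulin with 10 uM rosiglitazone (3 days), then 2–3 days in 10% FBS.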

Data set [2] is described as follows: Rat pharmacokinetics (PK) study. The data set is classed as in vivo. The conditions noted are these: sc, male SD rats, subcutaneous 30 nmol/kg, plasma. How it is done: 7˜9 weeks old male SD rats (220-250 g, 3 rats/group) were subjected to subcutaneous injection of 30 nmol/kg compound. After administration, blood was collected through the jugular vein at time points 0.25, 2, 4, 8, 12, 16, 24, 48, 96, 120, and 144 hours. The blood was processed to obtain plasma samples and analyzed using LC-MS/MS. The blood concentration time curve was analyzed using Phoenix WinNonlin version 6.3 software (non compartment model), and PK parameters and half-life were calculated.

In data set [3] the test system is human primary liver cells. The class given is cell-based. A digest of the protocol:
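cAMP readout after 60 min with detection reagent, following 60 min room-temperature compound incubation. Cells were primary human liver cells thawed at 37° C and resuspended in HBSS.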

Another data set deals with RIN-m5F cells. The class given is cell-based, rat. The essentials:
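After 60 min room-temperature exposure of HBSS-suspended RIN-m5F cells to compound and another 60 min with detection reagent, cellular cAMP level was determined.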

The target in data set [4] is T1, human GIP receptor (human) (UniProt P48546).
T1 sequence (looked up): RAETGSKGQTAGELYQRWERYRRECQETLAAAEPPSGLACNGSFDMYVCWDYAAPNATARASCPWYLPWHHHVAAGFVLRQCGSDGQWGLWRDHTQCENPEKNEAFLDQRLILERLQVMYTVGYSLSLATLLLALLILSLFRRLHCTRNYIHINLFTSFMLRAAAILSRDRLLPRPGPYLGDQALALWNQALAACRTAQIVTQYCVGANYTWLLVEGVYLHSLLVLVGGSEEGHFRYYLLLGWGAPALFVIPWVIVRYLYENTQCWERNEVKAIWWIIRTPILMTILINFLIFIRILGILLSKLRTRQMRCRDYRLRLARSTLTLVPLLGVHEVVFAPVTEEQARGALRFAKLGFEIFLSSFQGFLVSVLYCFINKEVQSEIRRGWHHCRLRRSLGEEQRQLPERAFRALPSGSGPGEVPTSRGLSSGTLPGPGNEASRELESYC
Put plainly: cell-based or functional assay.

Where [5] appears, read: 10 nmol/kg s.c. Q3D for 15 days.
Where [6] appears, read: 30 nmol/kg s.c. Q3D for 15 days.

Starred links: 1 amine or outer side, 2 acyl side, 3 side chain; linkers in the order of their positions; H or OH if unused. Non-standard residues stand in square brackets, D forms with d. Groups on a side chain read outwards from the residue. No end group written: not given here. *: point of attachment. C20 diacid = O=C(O)CCCCCCCCCCCCCCCCCCC(=O)*; γGlu = O=C(O)[C@H](CCC(=O)[*:2])N[*:1]; AEEA = NCCOCCOCC(=O)O; Aib = CC(C)(N)C(=O)O

Regarding `CC[C@H](C)[C@H](NC(=O)[C@H](CC(C)C)NC(=O)[C@H](Cc1c[nH]c2ccccc12)NC(=O)[C@H](CCC(N)=O)NC(=O)[C@@H](NC(=O)[C@H](Cc1ccccc1)NC(=O)[C@H](C)NC(=O)[C@H](CCCCNC(=O)COCCOCCNC(=O)COCCOCCNC(=O)CC[C@H](NC(=O)CCCCCCCCCCCCCCCCCCC(=O)O)C(=O)O)NC(=O)[C@H](CCC(N)=O)NC(=O)[C@H](C)NC(=O)[C@@H](NC(=O)[C@H](CCCCN)NC(=O)[C@H](CC(=O)O)NC(=O)[C@H](CC(C)C)NC(=O)C(C)(C)NC(=O)[C@@H](NC(=O)[C@H](CO)NC(=O)[C@H](Cc1ccc(O)cc1)NC(=O)[C@H](CC(=O)O)NC(=O)[C@H](CO)NC(=O)[C@@H](NC(=O)[C@H](Cc1ccccc1)NC(=O)[C@@H](NC(=O)CNC(=O)[C@H](CCC(=O)O)NC(=O)C(C)(C)NC(=O)[C@@H](N)Cc1ccc(O)cc1)[C@@H](C)O)[C@@H](C)O)[C@@H](C)CC)[C@@H](C)CC)C(C)C)C(=O)N[C@@H](C)C(=O)NCC(=O)NCC(=O)N1CCC[C@H]1C(=O)N[C@@H](CO)C(=O)N[C@@H](CO)C(=O)NCC(=O)N[C@@H](C)C(=O)N1CCC[C@H]1C(=O)N1CCC[C@H]1C(=O)N1CCC[C@H]1C(=O)N[C@@H](CO)C(N)=O` [Tirzepatide, reference compound], the values for the Weight change in the data set on C57 BL/6J DIO mice (3 nmol/kg s.c. Q3D for 15 days), in the data set on C57 BL/6J DIO mice (setting [5]) and in the data set on C57 BL/6J DIO mice (setting [6]) were −16.1 ± 0.71%, −21.6 ± 0.99% and −32.6 ± 1.60%, respectively. Also, the LDL-C is recorded as 0.62 ± 0.065 mM with C57 BL/6J DIO mice (3 nmol/kg, Day 15) and 0.57 ± 0.057 mM with C57 BL/6J DIO mice (30 nmol/kg, Day 15). Moreover, the “TC (total cholesterol)” value in the data set on C57 BL/6J DIO mice (3 nmol/kg, Day 15) is on record as 4.12 ± 0.322 mM; with C57 BL/6J DIO mice (30 nmol/kg, Day 15) it was 3.28 ± 0.259 mM. The “TG (plasma triglycerides)” value with C57 BL/6J DIO mice (3 nmol/kg, Day 15) is on record as 0.97 ± 0.050 mM; in the data set with C57 BL/6J DIO mice (30 nmol/kg, Day 15), 0.79 ± 0.068 mM. In addition, the hypoglycemic effect entry in data set [1] (1 mg dose vs Dulaglutide 1.5 mg) was “significantly lower than that of Dulaglutide 1.5 mg”. Besides, the weight loss effect entry in data set [1] (1 mg dose) was “almost no weight loss effect”.

What is called EC50 is the concentration needed to bring the measured effect to its halfway point. A lower EC50 goes with higher potency in that assay. Broadly, the AUC(0-t) is the area under the concentration-time curve up to a stated or last time point. A word on the Cmax: it is the peak of the concentration-time curve. What is called Tmax is the time from dosing to the highest level. What is called half-life is how long it takes for the measured level to halve. A high value points to slow loss. As for `CC[C@H](C)[C@H](NC(=O)[C@H](Cc1ccccc1)NC(=O)[C@H](C)NC(=O)C(C)(C)NC(=O)[C@H](CCC(N)=O)NC(=O)[C@H](C)NC(=O)[C@H](CCCCNC(=O)COCCOCCNC(=O)COCCOCCNC(=O)CC[C@H](NC(=O)CCCCCCCCCCCCCCCCCCC(=O)O)C(=O)O)NC(=O)[C@H](CCCCN)NC(=O)[C@H](CC(=O)O)NC(=O)[C@H](CC(C)C)NC(=O)[C@](C)(CC(C)C)NC(=O)[C@@H](NC(=O)[C@H](CO)NC(=O)[C@H](Cc1ccc(O)cc1)NC(=O)[C@H](CC(=O)O)NC(=O)[C@H](CO)NC(=O)[C@@H](NC(=O)[C@](C)(Cc1ccccc1)NC(=O)[C@@H](NC(=O)CNC(=O)[C@H](CCC(N)=O)NC(=O)C(C)(C)NC(=O)[C@@H](N)Cc1ccc(O)cc1)[C@@H](C)O)[C@@H](C)O)[C@@H](C)CC)C(=O)N[C@@H](CCC(=O)O)C(=O)N[C@@H](Cc1ccc(O)cc1)C(=O)N[C@@H](CC(C)C)C(=O)N[C@@H](CC(C)C)C(=O)N[C@@H](CCC(=O)O)C(=O)N[C@@H](CO)C(=O)N[C@@H](Cc1c[nH]cn1)C(=O)N1CCC[C@H]1C(=O)N[C@@H](CO)C(=O)N[C@@H](CO)C(=O)NCC(=O)N[C@@H](C)C(=O)N1CCC[C@H]1C(=O)N1CCC[C@H]1C(=O)NC1(C(=O)N[C@@H](CO)C(N)=O)CC1` [Compound 3], a half-maximal effect with 3T3-L1 adipocytes (EC50) was put at 1.87 nM. In data set [2], the area under the curve AUC(0-t) was found to be 6.69 µM·h, the highest level (Cmax) was 149 nM, the time of peak concentration (Tmax) is 21.3 h and the half-life was 19.1 h. In addition, the Weight change in the data set on C57 BL/6J DIO mice (3 nmol/kg s.c. Q3D for 15 days) is −21.2 ± 0.75%. Also, in the data set with C57 BL/6J DIO mice (setting [5]), the Weight change is listed as −32.4 ± 2.94%. For the same molecule, the Weight change in the data set with C57 BL/6J DIO mice (setting [6]) is given as −51.6 ± 1.21%. For the same molecule, in the data set with C57 BL/6J DIO mice (3 nmol/kg, Day 15), the LDL-C is 0.52 ± 0.033 mM, the “TC (total cholesterol)” value came out at 3.42 ± 0.214 mM and the “TG (plasma triglycerides)” value is on record as 0.87 ± 0.066 mM. Besides, in the data set with C57 BL/6J DIO mice (30 nmol/kg, Day 15), the LDL-C came out at 0.37 ± 0.035 mM, the “TC (total cholesterol)” value is reported as 2.15 ± 0.079 mM and the “TG (plasma triglycerides)” value came out at 0.55 ± 0.022 mM. Further, in the data set on C57 BL/6J DIO mice (Table 8-1, 3 nmol/kg, Day 15), the “Blood sugar (fasting blood glucose)” value amounted to 107.5 ± 5.17 mg/dL and the “Insulin (blood)” value is listed as 25.4 ± 16.90 mIU/L. Moreover, in the data set with C57 BL/6J DIO mice (Table 9-1, 3 nmol/kg, Day 15), the “Liver TG” value amounted to 32.2 ± 2.99 mg. In data set [3], this molecule yielded an EC50 of 1.59 nM. In the data set on RIN-m5F cells, this molecule came in with an EC50 of 0.4 nM.

B1: Tirzepatide (peptide)
peptide: Y[Aib]QGTFTSDYSI[Aib]LDKIAQK([AEEA-AEEA-γGlu-C20 diacid])AFVQWLIAGGPSSGAPPPS-NH2
modifications: N-terminus assumed
SMILES: CC[C@H](C)[C@H](NC(=O)[C@H](CC(C)C)NC(=O)[C@H](Cc1c[nH]c2ccccc12)NC(=O)[C@H](CCC(N)=O)NC(=O)[C@@H](NC(=O)[C@H](Cc1ccccc1)NC(=O)[C@H](C)NC(=O)[C@H](CCCCNC(=O)COCCOCCNC(=O)COCCOCCNC(=O)CC[C@H](NC(=O)CCCCCCCCCCCCCCCCCCC(=O)O)C(=O)O)NC(=O)[C@H](CCC(N)=O)NC(=O)[C@H](C)NC(=O)[C@@H](NC(=O)[C@H](CCCCN)NC(=O)[C@H](CC(=O)O)NC(=O)[C@H](CC(C)C)NC(=O)C(C)(C)NC(=O)[C@@H](NC(=O)[C@H](CO)NC(=O)[C@H](Cc1ccc(O)cc1)NC(=O)[C@H](CC(=O)O)NC(=O)[C@H](CO)NC(=O)[C@@H](NC(=O)[C@H](Cc1ccccc1)NC(=O)[C@@H](NC(=O)CNC(=O)[C@H](CCC(N)=O)NC(=O)C(C)(C)NC(=O)[C@@H](N)Cc1ccc(O)cc1)[C@@H](C)O)[C@@H](C)O)[C@@H](C)CC)[C@@H](C)CC)C(C)C)C(=O)N[C@@H](C)C(=O)NCC(=O)NCC(=O)N1CCC[C@H]1C(=O)N[C@@H](CO)C(=O)N[C@@H](CO)C(=O)NCC(=O)N[C@@H](C)C(=O)N1CCC[C@H]1C(=O)N1CCC[C@H]1C(=O)N1CCC[C@H]1C(=O)N[C@@H](CO)C(N)=O
For B1, in data set [4], the cAMP EC50, CHO cells stably overexpressing human GIP R was determined as 0.21 nM and the cAMP Rel. A (%) against human GIP, human GIP R cells worked out at 86.2%.

(Values after patent US20250129135A1, “Multi-Agonist and Use Thereof” (priority 2021, published 2025).)
